Target: T1, Integrin alpha-L (Mus musculus, UniProt P24063)
T1 sequence (P24063 whole entry): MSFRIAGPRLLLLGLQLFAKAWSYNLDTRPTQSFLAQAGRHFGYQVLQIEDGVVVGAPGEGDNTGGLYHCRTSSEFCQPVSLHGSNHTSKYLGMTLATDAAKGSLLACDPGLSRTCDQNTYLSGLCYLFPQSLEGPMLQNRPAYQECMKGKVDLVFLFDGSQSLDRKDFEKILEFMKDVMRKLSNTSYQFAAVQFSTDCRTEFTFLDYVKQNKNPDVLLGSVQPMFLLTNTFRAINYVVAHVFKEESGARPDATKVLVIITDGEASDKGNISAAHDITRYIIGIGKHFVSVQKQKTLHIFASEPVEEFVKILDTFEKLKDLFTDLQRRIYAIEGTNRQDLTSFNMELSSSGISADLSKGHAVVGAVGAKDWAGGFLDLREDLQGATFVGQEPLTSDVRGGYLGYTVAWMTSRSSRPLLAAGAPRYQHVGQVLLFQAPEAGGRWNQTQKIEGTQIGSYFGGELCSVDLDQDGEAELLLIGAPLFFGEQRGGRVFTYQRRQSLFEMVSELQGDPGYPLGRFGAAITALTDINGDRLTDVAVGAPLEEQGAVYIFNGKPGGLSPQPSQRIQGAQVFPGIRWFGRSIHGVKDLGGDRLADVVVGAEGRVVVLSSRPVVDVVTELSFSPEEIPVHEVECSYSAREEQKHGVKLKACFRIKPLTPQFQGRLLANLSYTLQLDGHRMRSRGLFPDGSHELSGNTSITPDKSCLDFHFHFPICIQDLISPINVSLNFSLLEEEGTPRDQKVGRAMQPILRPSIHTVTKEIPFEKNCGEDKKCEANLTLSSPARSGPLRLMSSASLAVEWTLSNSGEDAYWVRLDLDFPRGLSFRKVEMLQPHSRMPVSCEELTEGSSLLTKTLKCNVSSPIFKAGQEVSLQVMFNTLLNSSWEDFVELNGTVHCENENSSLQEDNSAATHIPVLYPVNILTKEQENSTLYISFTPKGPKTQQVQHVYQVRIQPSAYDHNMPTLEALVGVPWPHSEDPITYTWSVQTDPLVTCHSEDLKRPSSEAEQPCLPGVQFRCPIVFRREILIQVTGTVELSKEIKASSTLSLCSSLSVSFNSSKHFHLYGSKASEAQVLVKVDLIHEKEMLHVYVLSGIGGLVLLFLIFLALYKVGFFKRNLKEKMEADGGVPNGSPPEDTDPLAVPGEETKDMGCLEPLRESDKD
Experiment: modulators of CD8 T cell-vesicle binding, dose response, powder samples, mouse 2C CD8+ cells (AID 504565)

EC50: 9.02 µM
Structure (SMILES): O=C(c1ccc(-n2c(O)c3c(c2O)CC(Cl)=CC3)cc1)N1CCCCC1 [5-chloro-2-[4-[oxo(1-piperidinyl)methyl]phenyl]-3a,4,7,7a-tetrahydroisoindole-1,3-dione]

From BindingDB's records for doi:10.7270/Q2XW4H88 (Nmmlsc, 2011)
